# Data taken from patent US20240307340A1, “IMMUNOSUPPRESSIVE PHARMACEUTICAL COMPOSITION INCLUDING BENZENE DERIVATIVE AS IMMUNOSUPPRESSANT” (INJE UNIVERSITY INDUSTRY-ACADEMIC COOPERATION FOUNDATION, priority 2021, published 2024).
# Test system: BALB/c mice with psoriasis induced by Aldara cream (imiquimod)
# Assay: Imiquimod-induced psoriasis model
# Format: in vivo
# Details: 40 mg/kg intraperitoneal in 50 μL DMSO
# Method: A test was conducted to evaluate the alleviation of psoriatic skin lesions using psoriasis animals. To this end, first, BALB/c mice (7 weeks old/20 g/female) purchased from Hana Biotech Co., Ltd., Korea were acclimated to the vivarium for a period of one week. After that, the hair on the back of the mice was shaved and completely removed with a depilatory cream (Niclean cream (thioglycolic acid […], Ildong Pharmaceutical Co., Ltd., Korea)). The animals were bred for 24 h. 80 mg of Aldara® cream (imiquimod 4 mg) was applied daily for 1 week (7 days, 7 times in total) to induce psoriasis, as shown in FIG. 49. Thereafter, 80 mg of Aldara® cream (imiquimod 4 mg) was continuously applied to each group for 10 days. During the administration, an observation was made as to whether psoriasis was alleviated. As a result, skin lesions were alleviated in the group administered the inventive compound than in the negative control or the DMSO-administered group, as shown in FIG. 49.
# After the skin tissues of the test subjects were subjected to H&E staining according to the above schedule, the degrees of inflammatory cell infiltration were observed.
# FIGS. 56 and 57 show the results of flow cytometry for the groups administered the compounds of Examples 14 and 17. The in vivo effects of the compounds of Examples 14 and 17 on T cells in the test subjects were investigated. To this end, the spleens were harvested from the mice administered each compound and T cells were extracted from the harvested spleens.
row,Structure (SMILES),"psoriatic skin lesions (photographs, FIG. 49)"
1,CC(C)=CCC/C(C)=C/CC/C(C)=C/COC(=O)c1ccccc1Br [Example 17],alleviated
2,CC(C)=CCC/C(C)=C/CNC(=O)c1ccccc1Br [Example 14],alleviated

# Same assay, conditions: 40 mg/kg intraperitoneal; splenic T cells
Structure (SMILES),number of CD4 T cells in spleen (flow cytometry),number of CD8 T cells in spleen (flow cytometry)
CC(C)=CCC/C(C)=C/CC/C(C)=C/COC(=O)c1ccccc1Br [Example 17],decreases,decreases
CC(C)=CCC/C(C)=C/CNC(=O)c1ccccc1Br [Example 14],decreases,decreases

# Same assay, conditions: 40 mg/kg intraperitoneal; versus negative control and DMSO group
row,Structure (SMILES),inflammatory cell infiltration (H&E staining of skin)
1,CC(C)=CCC/C(C)=C/CC/C(C)=C/COC(=O)c1ccccc1Br [Example 17],less inflammatory cell infiltration
2,CC(C)=CCC/C(C)=C/CNC(=O)c1ccccc1Br [Example 14],less inflammatory cell infiltration

# Same assay, conditions: 40 mg/kg intraperitoneal; visual observation; P<0.05
Structure (SMILES),erythema,skin scaling,skin thickness
CC(C)=CCC/C(C)=C/CC/C(C)=C/COC(=O)c1ccccc1Br [Example 17],significant decreases,significant decreases,significant decreases
CC(C)=CCC/C(C)=C/CNC(=O)c1ccccc1Br [Example 14],significant decreases,significant decreases,significant decreases

# Test system: T lymphocyte cell line Jurkat E6-1
# Assay: Cytotoxicity (CCK-8 viability)
# Format: cell-based
# Details: 10 μM, 20 h culture
# Method: The cytotoxicities of the compounds of Examples 1-19 and Comparative Examples 1-3 to T lymphocyte cell line Jurkat E6-1 provided from the Korea Cell Line Bank were measured using a cell counting kit (CCK-8, Dojindo). After the cell line was allowed to grow in RPMI1640 medium supplemented with 10% FBS, 100 U/mL penicillin, and 100 μg/mL streptomycin, cells were plated in each well of a 96-well plate at a density of 2λ10^4 cells/well and treated with each of the compounds of Examples 1-19 and Comparative Examples 1-3. After culture in a 5% CO2 incubator at 37° C. for 20 h, CCK-8 solution was added to a concentration of 10%, followed by reculture in a 5% CO2 incubator at 37° C. for one and a half hours. The absorbance was measured at 450 nm (Reference: 650 nm) and was expressed in percent relative to the value […] from non-treated cells (viability 100%).
# In Table 1, the number 100 corresponds to a viability of 100%.
row,Structure (SMILES),"viability relative to non-treated cells, 10 μM (%)"
1,C=CCCCCCCCCCNC(=O)c1ccccc1F [Example 15],88.8%
2,CCCCCCCCCCCCNC(=O)c1ccccc1O [Example 7],82%
3,CC(C)=CCC/C(C)=C/CC/C(C)=C/COC(=O)c1ccccc1Br [Example 17],73.6%
4,CCCCCCCCCCNC(=O)c1ccccc1Br [Example 12],91%
5,CCCCC(CC)CNC(=O)c1ccccc1F (centres unmarked) [Example 8],94.7%
6,CCCCC(CC)CNC(=O)c1ccccc1Br (centres unmarked) [Example 9],95.3%
7,CCCCCCNC(=O)c1ccccc1OC [Example 4],96%
8,CC(C)=CCC/C(C)=C/CNC(=O)c1ccccc1F [Example 16],89.3%
9,C=CCCCCCCCCCNC(=O)c1ccccc1Br [Example 13],98.8%
10,CC(C)=CCC/C(C)=C/CNC(=O)c1ccccc1Br [Example 14],96.9%

# Same assay, conditions: 20 μM, 20 h culture
row,Structure (SMILES),"viability relative to non-treated cells, 20 μM (%)"
1,C=CCCCCCCCCCNC(=O)c1ccccc1F [Example 15],91.2%
2,CCCCCCCCCCCCNC(=O)c1ccccc1O [Example 7],79.3%
3,CC(C)=CCC/C(C)=C/CC/C(C)=C/COC(=O)c1ccccc1Br [Example 17],72.1%
4,CCCCCCCCCCNC(=O)c1ccccc1Br [Example 12],85.3%
5,CCCCC(CC)CNC(=O)c1ccccc1F (centres unmarked) [Example 8],92.2%
6,CCCCC(CC)CNC(=O)c1ccccc1Br (centres unmarked) [Example 9],95.1%
7,CCCCCCNC(=O)c1ccccc1OC [Example 4],92%
8,CC(C)=CCC/C(C)=C/CNC(=O)c1ccccc1F [Example 16],85.7%
9,C=CCCCCCCCCCNC(=O)c1ccccc1Br [Example 13],97.9%
10,CC(C)=CCC/C(C)=C/CNC(=O)c1ccccc1Br [Example 14],96.6%

# Same assay, conditions: 30 μM, 20 h culture
row,Structure (SMILES),"viability relative to non-treated cells, 30 μM (%)"
1,C=CCCCCCCCCCNC(=O)c1ccccc1F [Example 15],93.5%
2,CCCCCCCCCCCCNC(=O)c1ccccc1O [Example 7],66%
3,CC(C)=CCC/C(C)=C/CC/C(C)=C/COC(=O)c1ccccc1Br [Example 17],72.7%
4,CCCCCCCCCCNC(=O)c1ccccc1Br [Example 12],78.5%
5,CCCCC(CC)CNC(=O)c1ccccc1F (centres unmarked) [Example 8],90.9%
6,CCCCC(CC)CNC(=O)c1ccccc1Br (centres unmarked) [Example 9],92.0%
7,CCCCCCNC(=O)c1ccccc1OC [Example 4],88%
8,CC(C)=CCC/C(C)=C/CNC(=O)c1ccccc1F [Example 16],76.3%
9,C=CCCCCCCCCCNC(=O)c1ccccc1Br [Example 13],90.3%
10,CC(C)=CCC/C(C)=C/CNC(=O)c1ccccc1Br [Example 14],95.4%
